Literature values, collected in US20030083378A1, “Eye drops” (priority 2000, published 2003).

What was measured:
leukotrienes = settings: Japanese Unexamined Patent Publication No. Hei 2-1459
respiratory anaphylaxis = settings: Japanese Unexamined Patent Publication No. Hei 2-1459

Solubility: slightly soluble
SMILES: CCCc1c(SCCCOc2ccc(C(C)=O)c(OCCCC(=O)O)c2CCC)ccc(C(C)=O)c1O [KCA-757, 4-[6-acetyl-3-[3-[(4-acetyl-3-hydroxy-2-propylphenyl)thio]propoxy]-2-propylphenoxy]butyric acid]
Leukotriene antagonist activity (leukotrienes): potent and selective leukotriene antagonist activity | Inhibitory function on respiratory anaphylaxis (respiratory anaphylaxis): inhibitory function on respiratory anaphylaxis
